# Source: patent publication US9763445B2, “Safened herbicidal compositions comprising a pyridine carboxylic acid herbicide” (Dow AgroSciences, LLC, priority 2014, dated 2017)
# What was measured:
# [1] = tested on: winter wheat (TRZAW); test: Postemergence greenhouse trial, % visual injury on winter wheat; format: in vivo, Triticum aestivum
# Experimental: (§1) Seeds of the desired test plant species were planted in Sun Gro MetroMix® 306 planting mixture, which typically has a pH of 6.0 to 6.8 and an organic matter content of about 30 percent, in plastic pots with a surface area of 103.2 square centimeters (cm^2). When required to ensure good germination and healthy plants, a fungicide treatment and/or other chemical or physical treatment was applied. The plants were grown for 7-36 days (d) in a greenhouse with an approximate 14-hour (h) photoperiod which was maintained at about 23° C. during the day and 22° C. during the night. Nutrients and water were added on a regular basis and supplemental lighting was provided with overhead metal halide 1000-Watt lamps as necessary. The plants were employed for testing when they reached the second or third true leaf stage.
# (§2) Weighed amounts of technical material were dissolved in a volume of 97:3 volume per volume (v/v) acetone/dimethyl sulfoxide (DMSO) to stock solutions. […] The concentrated stock solutions were diluted with an aqueous mixture of 1.5% v/v of Agri-dex crop oil concentrate to provide the appropriate application rates. Compound requirements are based upon a 12 milliliter (mL) application volume at a rate of 187 liters per hectare (L/ha). Stocks solutions of the safeners were prepared following the same procedure. Spray solutions of the safeners and experimental compound mixtures were prepared by adding the stock solutions to the appropriate amount of dilution solution to form a 12 mL spray solution in two-way combinations. Formulated compounds were applied to the plant material with an overhead Mandel track sprayer equipped with 8002E nozzles calibrated to deliver 187 L/ha over an application area of 0.503 square meters (m^2) at a spray height of 18 inches (43 centimeters (cm)) above average plant canopy. Control plants were sprayed in the same manner with the solvent blank. All herbicide application (component a) rates are in g ae/ha and all safener (component b) rates are in g ai/ha.
# (§3) The treated plants and control plants were placed in a greenhouse as described above and watered by sub-irrigation to prevent wash-off of the test compounds. After 20-22 d, the condition of the test plants as compared with that of the control plants was determined visually and scored on a scale of 0 to 100 percent where 0 corresponds to no injury and 100 corresponds to complete kill. The condition of the test plants was compared with that of the control plants as determined visually and scored on a scale of 0 to 100 percent, where 0 corresponds to no injury and 100 corresponds to complete kill. Colby's equation was used to determine the herbicidal effects expected from the mixtures.
# (§4) The safener cloquintocet-mexyl was combined with compound 1, compound 2, compound 3, compound 7, compound 8, compound 9, compound 10, compound 11, compound 12, compound 13, compound 14, compound 15, compound 16, compound 17, compound 18, compound 19, and compound 20, and applied to spring wheat (TRZAS), winter wheat (TRZAW), and spring barley (HORVS) and the phytotoxicity of the herbicidal compositions was measured. […]
# [2] = tested on: prickly lettuce (LACSE); test: Postemergence greenhouse trial, % visual injury on prickly lettuce; format: in vivo, Lactuca serriola
# Experimental: as §1, §2
# as §3, with “mixtures. […]” for “mixtures.”
# [3] = tested on: chickweed (STEME); test: Postemergence greenhouse trial, % visual injury on chickweed; format: in vivo, Stellaria media; conditions: for % visual injury, observed (Ob): STEME
# Outline: (§5)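 Visual injury, 0 (none) to 100 (complete kill), rated 20-22 d after overhead track-sprayer application at 187 L/ha; Colby's equation gave expected mixture responses. Herbicide (g ae/ha) and cloquintocet-mexyl safener (g ai/ha) diluted in aqueous 1.5% v/v Agri-dex, applied to weeds at 2–3 true leaves.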
# [4] = tested on: nutsedge (CYPES); test: Postemergence greenhouse trial, % visual injury on nutsedge; format: in vivo, Cyperus esculentus; conditions: for % visual injury, observed (Ob): CYPES; for % visual injury, Ob: alone, 35 g/ha
# Experimental: as §1, §2, §3
# The safener cloquintocet-mexyl was combined with compound 1, compound 2, compound 4, compound 5, and compound 6, and applied to corn/maize (ZEAMX) and spring wheat (TRZAS) and the phytotoxicity of the herbicidal compositions was measured. In addition, the efficacy of the herbicidal composition on velvetleaf (ABUTH, Abutilon theophrasti), pigweed (AMARE, Amaranthus retroflexus), winter rape (BRSNW, Brassica napus), lambsquarters (CHEAL, Chenopodium album), thistle (CIRAR, Cirsium arvense), nutsedge (CYPES, Cyperus esculentus), poinsettia (EPHHL, Euphorbia heterophylla), wild buckwheat (POLCO, Polygonum convolvulus), giant foxtail (SETFA, Setaria faberi), and chickweed (STEME, Stellaria media) was evaluated. […]
# The safener cloquintocet-acid and a number of agriculturally acceptable esters and salts (-mexyl, -dimethylammonium salt and -triethylammonium salt) were combined in varying ratios with compound 1 and applied to spring wheat (TRZAS), winter wheat (TRZAW), and spring barley (HORVS), and the phytotoxicity of the herbicidal compositions was measured. […]
# [5] = tested on: cleavers (GALAP); test: Postemergence greenhouse trial, % visual injury on cleavers; format: in vivo, Galium aparine
# Experimental: as §1, §2, §3, §4
# [6] = tested on: wild chamomile (MATCH); test: Postemergence greenhouse trial, % visual injury on wild chamomile; format: in vivo, Matricaria chamomilla
# Experimental: as §1, §2
# as §3, with “mixtures. […]” for “mixtures.”
# [7] = tested on: wild buckwheat (POLCO); test: Postemergence greenhouse trial, % visual injury on wild buckwheat; format: in vivo, Polygonum convolvulus; conditions: for % visual injury, observed (Ob): POLCO; for % visual injury, Ob: alone, 35 g/ha
# Outline: as §5
# [8] = compound 2 4.380 + CQC-m 0 g/ha
structure (smiles),measurement,setting,value
"CCCCCC(C)OC(=O)COc1ccc(Cl)c2cccnc12 (stereo not drawn) [CQC-m, cloquintocet-mexyl, reference compound]","% visual injury, Ob","[1]; TRZAW, compound 0 g/ha, CQC-m 35 g/ha",0%
same,"% visual injury, Ob","[1]; TRZAW, compound 0 g/ha, CQC-m 70 g/ha",0%
same,"% visual injury, observed (Ob)","[1]; TRZAW, safener alone 2.5 g/ha",0%
same,"% visual injury, observed (Ob)","[1]; TRZAW, safener alone 5 g/ha",0%
same,"% visual injury, observed (Ob)","[1]; TRZAW, safener alone 10 g/ha",0%
same,"% visual injury, observed (Ob)","[1]; TRZAW, safener alone 20 g/ha",0%
same,"% visual injury, Ob","[1]; alone, 35 g/ha",0%
same,"% visual injury, Ob","[1]; alone, 70 g/ha",0%
same,"% visual injury, Ob","[2]; LACSE, compound 0, CQC-m 4.375 g/ha",0%
same,"% visual injury, Ob","[2]; LACSE, compound 0, CQC-m 8.75 g/ha",0%
same,"% visual injury, Ob","[2]; LACSE, compound 0, CQC-m 17.5 g/ha",0%
same,"% visual injury, Ob","[2]; LACSE, compound 0, CQC-m 35 g/ha",0%
same,"% visual injury, Ob","[2]; LACSE, compound 0, CQC-m 70 g/ha",0%
same,"% visual injury, Ob","[2]; LACSE, compound 0 g/ha, CQC-m 4.375 g/ha",0%
same,"% visual injury, Ob","[2]; LACSE, compound 0 g/ha, CQC-m 8.75 g/ha",0%
same,"% visual injury, Ob","[2]; LACSE, compound 0 g/ha, CQC-m 17.5 g/ha",0%
same,"% visual injury, Ob","[2]; LACSE, compound 0 g/ha, CQC-m 35 g/ha",0%
same,"% visual injury, Ob","[2]; LACSE, compound 0 g/ha, CQC-m 70 g/ha",0%
same,"% visual injury, Ob","[2]; alone, 4.375 g/ha",0%
same,"% visual injury, Ob","[2]; alone, 8.75 g/ha",0%
same,"% visual injury, Ob","[2]; alone, 17.5 g/ha",0%
same,"% visual injury, Ob","[2]; alone, 35 g/ha",0%
same,"% visual injury, Ob","[2]; alone, 70 g/ha",0%
same,"% visual injury, Ob","[3]; alone, 35 g/ha",0%
same,"% visual injury, observed (Ob)",[4]; safener alone 2.5 g/ha,0%
same,"% visual injury, observed (Ob)",[4]; safener alone 5 g/ha,0%
same,"% visual injury, observed (Ob)",[4]; safener alone 10 g/ha,0%
same,"% visual injury, observed (Ob)",[4]; safener alone 20 g/ha,0%
same,"% visual injury, Ob",[4],0%
same,"% visual injury, Ob","[5]; 4.375 g/ha, applied alone",0%
same,"% visual injury, Ob","[5]; 8.75 g/ha, applied alone",0%
same,"% visual injury, Ob","[5]; 17.5 g/ha, applied alone",0%
same,"% visual injury, Ob","[5]; 35 g/ha, applied alone",0%
same,"% visual injury, Ob","[5]; 70 g/ha, applied alone",0%
same,"% visual injury, Ob","[5]; compound 0 g/ha, CQC-m 4.375 g/ha",0%
same,"% visual injury, Ob","[5]; compound 0 g/ha, CQC-m 8.75 g/ha",0%
same,"% visual injury, Ob","[5]; compound 0 g/ha, CQC-m 17.5 g/ha",0%
same,"% visual injury, Ob","[5]; compound 0 g/ha, CQC-m 35 g/ha",0%
same,"% visual injury, Ob","[5]; compound 0 g/ha, CQC-m 70 g/ha",0%
same,"% visual injury, Ob","[6]; compound 0, CQC-m 4.375 g/ha",0%
same,"% visual injury, Ob","[6]; compound 0, CQC-m 8.75 g/ha",0%
same,"% visual injury, Ob","[6]; compound 0, CQC-m 17.5 g/ha",0%
same,"% visual injury, Ob","[6]; compound 0, CQC-m 35 g/ha",0%
same,"% visual injury, Ob","[6]; compound 0, CQC-m 70 g/ha",0%
same,"% visual injury, observed (Ob)",[7]; compound 8 0 + CQC-m 4.375 g/ha,0%
same,"% visual injury, observed (Ob)",[7]; compound 8 0 + CQC-m 8.75 g/ha,0%
same,"% visual injury, observed (Ob)",[7]; compound 8 0 + CQC-m 17.5 g/ha,0%
same,"% visual injury, observed (Ob)",[7]; compound 8 0 + CQC-m 35 g/ha,0%
same,"% visual injury, observed (Ob)",[7]; compound 8 0 + CQC-m 70 g/ha,0%
same,"% visual injury, Ob",[7],0%
Nc1c(F)c(-c2ccc3cc[nH]c3c2F)nc(C(=O)OCc2ccccc2)c1Cl [compound 2],"% visual injury, observed (Ob)","[1]; TRZAW, compound 2 35 + CQC-m 0 g/ha",20%
same,"% visual injury, observed (Ob)","[1]; TRZAW, compound 2 70 + CQC-m 0 g/ha",30%
same,"% visual injury, observed (Ob)","[1]; TRZAW, compound 2 140 + CQC-m 0 g/ha",50%
same,"% visual injury, observed (Ob)","[2]; LACSE, compound 2 4.380 + CQC-m 0 g/ha",40%
same,"% visual injury, observed (Ob)","[2]; LACSE, compound 2 8.75 + CQC-m 0 g/ha",99%
same,"% visual injury, observed (Ob)","[2]; LACSE, compound 2 17.5 + CQC-m 0 g/ha",99%
same,"% visual injury, observed (Ob)","[2]; LACSE, compound 2 35 + CQC-m 0 g/ha",100%
same,"% visual injury, observed (Ob)","[2]; LACSE, compound 2 70 + CQC-m 0 g/ha",100%
same,"% visual injury, observed (Ob)",[3]; [8],25%
same,"% visual injury, observed (Ob)",[3]; compound 2 8.75 + CQC-m 0 g/ha,68%
same,"% visual injury, observed (Ob)",[3]; compound 2 17.5 + CQC-m 0 g/ha,97%
same,"% visual injury, observed (Ob)",[3]; compound 2 35 + CQC-m 0 g/ha,100%
same,"% visual injury, observed (Ob)",[3]; compound 2 70 + CQC-m 0 g/ha,100%
same,"% visual injury, Ob",[4],30%
same,"% visual injury, observed (Ob)",[5]; [8],20%
same,"% visual injury, observed (Ob)",[5]; compound 2 8.75 + CQC-m 0 g/ha,30%
same,"% visual injury, observed (Ob)",[5]; compound 2 17.5 + CQC-m 0 g/ha,93%
same,"% visual injury, observed (Ob)",[5]; compound 2 35 + CQC-m 0 g/ha,85%
same,"% visual injury, observed (Ob)",[5]; compound 2 70 + CQC-m 0 g/ha,97%
same,"% visual injury, observed (Ob)",[6]; [8],30%
same,"% visual injury, observed (Ob)",[6]; compound 2 8.75 + CQC-m 0 g/ha,58%
same,"% visual injury, observed (Ob)",[6]; compound 2 17.5 + CQC-m 0 g/ha,91%
same,"% visual injury, observed (Ob)",[6]; compound 2 35 + CQC-m 0 g/ha,98%
same,"% visual injury, observed (Ob)",[6]; compound 2 70 + CQC-m 0 g/ha,100%
same,"% visual injury, Ob",[7],100%
